Experiments:
hIDE A198T = biological target: T1, hIDE A198T (Homo sapiens, UniProt P14735, A198T); assay: Small molecule-enzyme mutant complementation study; type: biochemical; conditions: A198T vs hIDE WT, batch 2
T1 construct: The reported N-His6-tagged human IDE42-1019 construct; made in house; host or cells: E. coli Rosetta 2 (DE3) pLysS
Excerpt: (§1) Protease assays with fluorogenic peptide substrates. […] All assay data points were obtained in duplicate.
(§2) Site-directed mutagenesis, expression, and purification of human IDE. The reported N-His6-tagged human IDE42-1019 construct was introduced in the expression plasmid pTrcHis-A (Invitrogen) using primers for uracil-specific excision reactions (USER) by Taq (NEB) and Pfu polymerases (PfuTurbo CX®, Agilent). The IDE gene was amplified with the primers 5′-[…]-dU-[…] and 5′-[…] G-dU-[…] (underlined sequences represent overhangs, and italics highlight the PCR priming sequence). Similarly, the pTrcHis-A vector was amplified for USER cloning with the primers 5′-[…] TGA-dU-[…] CCC and 5′-[…]-dU-[…]. Mutant IDE constructs were generated by amplifying the full vector construct with USER cloning primers introducing a mutant overhang (Table 5).
(§3) All PCR products were purified on microcentrifuge membrane columns (MinElute®, Qiagen) and quantified by UV absorbance (NanoDrop). Each fragment (0.2 pmol) was combined in a 10 μL reaction mixture containing 20 units DpnI (NEB), 0.75 units of USER mix (Endonuclease VIII and Uracil-DNA Glycosylase, NEB), 20 mM Tris-acetate, 50 mM potassium acetate, 10 mM magnesium acetate, 1 mM dithiothreitol at pH 7.9 (1× NEBuffer 4). The reactions were incubated at 37° C. for 45 min, followed by heating to 80° C. and slow cooling to 30° C. (0.2° C./s). The hybridized constructs were directly used for heat-shock transformation of chemically competent NEB turbo E. coli cells according to the manufacturer's instructions. Transformants were selected on carbenicillin LB agar, and isolated colonies were cultured overnight in 2 mL LB.
(§4) The plasmid was extracted using a microcentrifuge membrane column kit (Miniprep®, Qiagen), and the sequence of genes and vector junctions were confirmed by Sanger sequencing (Table 6). The plasmid constructs were transformed by heat-shock into chemically-competent expression strain Rosetta 2 (DE3) pLysS E. coli cells (EMD Millipore), and selected on carbenicillin/chloramphenicol LB agar. Cells transformed with IDE pTrcHis A constructs were cultured overnight at 37° C. in 2 XYT media (31 g in 1 L) containing 100 μg/mL ampicillin and 34 μg/mL chloramphenicol. Expression of His6-tagged IDE proteins was induced when the culture measured OD600 ˜0.6 by addition of isopropyl-β-D-1-thiogalactopyranoside (IPTG) to 1 mM final concentration, incubated overnight at 37° C., followed by centrifugation at 10,000 g for 30 min at 4° C.
(§5) Recombinant His6-tagged proteins were purified by Ni(II)-affinity chromatography (IMAC sepharose beads, GE Healthcare®) according to the manufacturer's instructions. The cell pellets were resuspended in pH 8.0 buffer containing 50 mM phosphate, 300 mM NaCl, 10 mM imidazole, 1% Triton X-100 and 1 mM tris(2-carboxyethyl)phosphine hydrochloride (TCEP), and were lysed by probe sonication for 4 min at 4° C., followed by clearing of cell debris by centrifugation at 10,000 g for 25 min at 4° C. The supernatant was incubated with Ni(II)-doped IMAC resin (2 mL) for 3 h at 4° C. The resin was washed twice with the cell resuspension/lysis buffer, and three times with pH 8.0 buffer containing 50 mM phosphate, 300 mM NaCl,50 mM imidazole and 1 mM TCEP. Elution was performed in 2 mL aliquots by raising the imidazole concentration to 250 mM and subsequently to 500 mM in the previous buffer. The fractions were combined and the buffer was exchanged to the recommended IDE buffer (R&D) using spin columns with 100 KDa molecular weight cut off membranes (Millipore). Protein yields were typically ˜10 μg/L, and >90% purity based on gel electrophoresis analysis (Coomassie stained).

hIDE V360Q = biological target: T2, hIDE V360Q (Homo sapiens, UniProt P14735, V360Q); assay: Small molecule-enzyme mutant complementation study; type: biochemical; conditions: V360Q vs hIDE WT, batch 1
T2 construct: The reported N-His6-tagged human IDE42-1019 construct was introduced in the expression plasmid pTrcHis-A; made in house; host or cells: E. coli Rosetta 2 (DE3) pLysS
Excerpt: as §1, §2, §3, §4, §5

DIO mice = assay: Plasma hormone measurements and liver RT-PCR post-IPGTT; type: in vivo, mouse
Description: Trunk blood was obtained for plasma hormone measurements using the Multiplexed Mouse Metabolic Hormone panel (Milliplex, EMD Millipore) on a Luminex FlexMap 3D instrument. Gastric emptying was measured by dissection of stomachs 30 min after an oral glucose bolus (3.0 g/kg, 10 mL/kg) in sterile saline containing 0.1 mg/mL phenol red.
Total RNA was isolated from liver samples (˜100 mg) using TRIzol (Invitrogen) and purified using an RNeasy® kit (Qiagen) and on-column DNAse treatment (Qiagen). Reverse transcription was performed with oligo(dT) primers using SuperScript III (Life Technologies). RT-PCR was performed with two primer pairs per target normalized against tubulin and beta-actin transcripts (ΔΔCT method).
Blood collection and plasma hormone measurements. Blood was collected in EDTA-coated tubes (BD Microtainer®) from trunk bleeding (˜500 μL) after CO2-euthanasia for all hormone assays. The plasma was immediately separated from red blood cells by centrifugation 10 min at 1800 g, aliquoted, frozen over dry ice and stored at −80° C. […] Values are reported as mean±S.E.M. Statistics were performed using a two-tail Student's t-test, and significance levels shown in the figures are *p<0.05 versus vehicle control group or **p<0.01 versus vehicle control group.
RT-PCR analysis of liver gluconeogenesis markers phosphoenolpyruvate carboxykinase (PEPCK) and glucose-6-phosphatase (G6Pase). Total RNA was isolated from liver samples (˜100 mg) using TRIzol® reagent (Invitrogen, 1 mL/100 mg sample), followed by spin-column purification (RNeasy® kit, Qiagen) and on-column DNAse treatment (Qiagen) according to the manufacturer's instructions. RNA concentrations were determined by UV spectrophotometry (NanoDrop). One microgram of total RNA was used for reverse transcription with oligo(dT) primers (SuperScript® III First-Strand Synthesis SuperMix, Life Technologies) according to the manufacturer's instructions. Quantitative PCR reactions included 1 μL of cDNA diluted 1:100, 0.4 μM primers, 2× SYBR Green PCR Master Mix (Invitrogen) in 25 μL total volume, and were read out by a CFX96TM Real-Time PCR Detection System (BioRad). Transcript levels were determined using two known primer pairs^18,19 for each gene of interest (Table 6), which were normalized against tubulin and beta-actin transcripts (ΔΔCT method), and expressed relative to the lowest sample. Duplicate control assays without reverse transcriptase treatment were run for each RNA preparation and primer set used. Statistics were performed using a two-tail Student's t-test, and significance levels shown in the figures are *p<0.05 versus vehicle control group or **p<0.01 versus vehicle control group.

[1] = DIO liver, 135 min post-IPGTT, vs vehicle
[2] = DIO mice, 20 minutes post-glucose injection, vs vehicle

T1 sequence (P14735 42-1019 A198T): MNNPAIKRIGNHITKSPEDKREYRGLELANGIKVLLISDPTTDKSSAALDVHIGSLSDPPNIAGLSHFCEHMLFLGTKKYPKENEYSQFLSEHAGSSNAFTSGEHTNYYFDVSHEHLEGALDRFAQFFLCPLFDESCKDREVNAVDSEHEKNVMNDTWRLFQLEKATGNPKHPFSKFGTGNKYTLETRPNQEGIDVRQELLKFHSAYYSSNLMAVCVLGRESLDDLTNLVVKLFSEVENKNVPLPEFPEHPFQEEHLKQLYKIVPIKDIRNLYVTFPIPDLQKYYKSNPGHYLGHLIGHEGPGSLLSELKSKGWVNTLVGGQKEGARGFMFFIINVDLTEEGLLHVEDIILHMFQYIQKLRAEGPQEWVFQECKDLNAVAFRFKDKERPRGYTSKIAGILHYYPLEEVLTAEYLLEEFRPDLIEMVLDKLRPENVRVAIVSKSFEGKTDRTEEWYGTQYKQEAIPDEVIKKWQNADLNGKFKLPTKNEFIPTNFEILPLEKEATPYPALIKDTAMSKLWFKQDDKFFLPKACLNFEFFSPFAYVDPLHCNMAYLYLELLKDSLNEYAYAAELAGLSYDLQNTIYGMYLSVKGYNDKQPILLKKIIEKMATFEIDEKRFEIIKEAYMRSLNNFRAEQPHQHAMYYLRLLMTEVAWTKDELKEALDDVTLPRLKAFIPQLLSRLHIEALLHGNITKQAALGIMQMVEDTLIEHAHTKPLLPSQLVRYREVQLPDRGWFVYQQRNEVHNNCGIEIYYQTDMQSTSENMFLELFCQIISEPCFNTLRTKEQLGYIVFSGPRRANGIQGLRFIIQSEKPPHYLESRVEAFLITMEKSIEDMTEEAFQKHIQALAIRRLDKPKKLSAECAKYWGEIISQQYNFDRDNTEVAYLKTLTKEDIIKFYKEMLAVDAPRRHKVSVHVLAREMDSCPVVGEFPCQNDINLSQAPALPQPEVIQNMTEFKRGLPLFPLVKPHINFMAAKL
T2 sequence (P14735 42-1019 V360Q): as the sequence (P14735 42-1019 A198T) above, with T157A, V319Q counted along it

IC50 shift (hIDE A198T)	IC50 shift (hIDE V360Q)	Structure (SMILES)	higher glucose-6-phosphatease (G6Pase) transcript levels (DIO mice; [1])	lower phosphoenolpyruvate carboxykinase (PEPCK) transcript levels (DIO mice; [1])	liver G6Pase expression (DIO mice; DIO mice post-IPGTT, vs control)	plasma amylin levels (DIO mice; [2])	plasma glucagon levels (DIO mice; [2])	plasma insulin levels (DIO mice; [2])	plasma glucagon levels (DIO mice; DIO mice, 130 min post-injection, hyperglycemic rebound)
16 fold	1.5 fold	NC(=O)CCC1NC(=O)C=CC(=O)NC(C(N)=O)CCCCNC(=O)C(Cc2ccc(C(=O)c3ccccc3)cc2)NC(=O)C(CC2CCCCC2)NC1=O (stereo not drawn) [Compound 6b]							
		NCCCC[C@@H]1NC(=O)/C=C/C(=O)N[C@H](C(N)=O)CCCCNC(=O)[C@@H](Cc2ccc(C(=O)c3ccccc3)cc2)NC(=O)[C@H](CC2CCCCC2)NC1=O [Compound 6bK]	50%	30%	elevated	elevated	unchanged	elevated	above 200 pg/mL

Reference: US20160282364A1, “ASSAY FOR INSULIN-DEGRADING ENZYME (IDE) INHIBITORS” (PRESIDENT AND FELLOWS OF HARVARD COLLEGE, priority 2013, published 2016)
